Test results as given in publication PMC4111603 (PLoS ONE, 2014).

What was measured:
[1] = cited from earlier work
[2] = target: T1, Ovine COX-1 (Ovis aries, UniProt P05979); assay: COX-1 oxygenation of arachidonic acid, oxygen electrode; format: biochemical; conditions: for COX-1 activity (% of control): 10 µM AA, initial activity 10-30 s, mean ± s.e.m., n = 3; for inhibition at 300 µM: 300 µM compound
T1 construct: purchased Cayman Chemical Co. 60100
T1 sequence (P05979 25-600): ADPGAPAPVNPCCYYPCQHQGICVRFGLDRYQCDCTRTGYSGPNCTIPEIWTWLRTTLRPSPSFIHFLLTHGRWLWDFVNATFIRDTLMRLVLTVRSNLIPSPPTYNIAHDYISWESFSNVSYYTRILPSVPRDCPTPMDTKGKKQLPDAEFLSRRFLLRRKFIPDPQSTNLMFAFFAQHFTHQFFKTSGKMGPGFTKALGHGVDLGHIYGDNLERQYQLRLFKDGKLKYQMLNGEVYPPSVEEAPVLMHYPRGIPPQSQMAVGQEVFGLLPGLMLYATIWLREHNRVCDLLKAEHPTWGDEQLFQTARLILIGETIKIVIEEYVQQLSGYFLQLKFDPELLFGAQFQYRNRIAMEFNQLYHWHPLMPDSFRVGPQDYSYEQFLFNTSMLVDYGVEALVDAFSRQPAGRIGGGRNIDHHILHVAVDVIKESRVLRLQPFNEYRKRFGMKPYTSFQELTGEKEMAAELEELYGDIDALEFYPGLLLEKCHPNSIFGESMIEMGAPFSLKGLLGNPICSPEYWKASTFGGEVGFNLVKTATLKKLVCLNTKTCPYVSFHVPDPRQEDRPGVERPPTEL
Procedure: The assay was performed according to Meade et al. with minor modifications using an oxygen electrode chamber with integral stirring (Oxygraph System, Hansatech Instruments, King’s Lynn, U.K.). The electrode was calibrated to ambient temperature and air pressure. Samples were prepared in 0.1 M Tris-HCl buffer pH 7.4 containing 1 µM haematin, 2 mM phenol, 5 mM EDTA, 10 µM substrate (AA or 2-AG) (final assay volume was 2 ml). After addition of test substance dissolved in DMSO (final assay concentration 1%) a baseline was established for 5 min before initiation of reaction by addition of 200 units COX-1 or COX-2. Change in oxygen consumption was monitored for approximately 5 min.
FAAH inhibition was calculated using log(inhibitor) vs. response with variable slope (four parameters) algorithm in the GraphPad Prism computer program (GraphPad Software Inc., San Diego, CA. USA). […] The two curves were compared by Akaike’s informative criteria and the best fit was chosen. Initial COX activities were calculated as the change in oxygen tension between 10 and 30 seconds after addition of enzyme.

[3] = read-out: inhibition of COX-1-catalysed oxygenation of arachidonic acid

Row | Compound | urinary recovery ([1]; 24 h after administration of 400 mg of ibuprofen) | COX-1 activity (% of control) ([2]; 100 µM NSAID) | COX-1 activity (% of control) ([2]; 300 µM NSAID) | inhibition at 300 µM [2, 3] | COX-1 activity (% of control) ([2]; 1000 µM NSAID) | share of the dose recovered in the urine ([1]; flurbiprofen 50 mg a day for 10 consecutive days) | inhibition at 100 µM ([2]; 100 µM compound, read-out: inhibition of COX-1-catalysed oxygenation of arachidonic acid) | inhibition at 1000 µM ([2]; 1000 µM compound, read-out: inhibition of COX-1-catalysed oxygenation of arachidonic acid)
1 | CC(C(=O)O)c1ccc(CC(C)(C)O)cc1 (stereo not shown) [2′-OH-Ibuprofen, 2-[4-(2-hydroxy-2-methylpropyl)phenyl]propionic acid] | 23% | 102±17 % of control | 91±5 % of control | 9% | 95±3 % of control | – | – | –
2 | CC(CO)Cc1ccc(C(C)C(=O)O)cc1 (stereo not shown) [3′-OH-Ibuprofen, 2-[4-(3-hydroxy-2-methylpropyl)phenyl]propionic acid] | – | 81±16 % of control | 97±10 % of control | 3% | 68±15 % of control | – | – | –
3 | CC(C(=O)O)c1ccc(-c2ccc(O)cc2)c(F)c1 (stereo not shown) [4′-OH-Flurbiprofen] | – | 97±31 % of control | 72±20 % of control | 28% | 6±6 % of control | 43% | 3% | 94%
